# In US20240327335A1, “AMIDE COMPOUND HAVING IODOARYL OR IODOHETEROARYL, PREPARATION METHOD THEREFOR AND USE THEREOF” (CARDIOLINK SCIENCE (SHENZHEN) MEDICAL TECHNOLOGY …, priority 2022, published 2024):
row,SMILES,melting point [°C]
1,COC(CNC(=O)c1cc(I)ccc1I)OC [Compound I-7],165 to 166
2,COC(CNC(=O)c1ccc(I)cc1)OC [Compound I-6],156 to 158
3,"COC(CNC(=O)c1cc(I)cc(I)c1I)OC [Compound I-1, N-(2,2-dimethoxyethyl)-2,3,5-triiodobenzamide]",180 to 182
4,O=CCNC(=O)c1cc(I)cc(I)c1I [Compound I-8],90 to 92

# Second part, the compound after the results:
row,melting point [°C],SMILES
1,170 to 171,COC(CNC(=O)COc1c(I)cc(I)cc1I)OC [Compound I-10]
2,172 to 173,COC(CNC(=O)Cc1cc(I)cc(I)c1I)OC [Compound I-11]
3,178 to 180,COC(CNC(=O)c1ccc(I)cn1)OC [Compound I-9]
